According to patent US20250197387A1, “BCL-XL DEGRADERS AND USES THEREOF” (Kymera Therapeutics, Inc., priority 2021, published 2025):
Where two headings read alike, the source gives them in different places.

Key:
Type in all cases: cell-based
BCL-XL [1] = molecular target: T1, BCL-XL (Homo sapiens, UniProt Q07817); experiment: BCL-XL degradation assay, western blot in MOLT-4 cells, 16 h; settings: for DC50: read-out: Bcl-xL WB in MOLT-4 degradation 16 h: Mean external-Abs DC50
T1 construct: endogenous in cells; host or cells: MOLT-4
Method in brief: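 MOLT-4 cells treated with compounds at 0.02-10 μM final for 16 hr at 37° C; lysates analysed by western blot with anti-BCL-xL, beta-actin and GAPDH loading controls, infrared imaging and densitometry; DC50 and Dmax % reported as letter codes.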

MOLT-4 cells = experiment: CTG (CellTiter-Glo) cell viability assay, MOLT-4; settings: Homo sapiens, 3 day incubation, read-out: CTG Cell Viability Assay - MOLT-4 3 day: Average external-IC50
Method: Compound-mediated viability effect on MOLT-4 and Caki-2 was quantitatively determined using the CellTiter-Glo® Luminescent Cell Viability Assay kit from Promega (Catalog number G7570) following manufacturer's recommended procedures. Briefly, MOLT-4 and Caki-2 cells were seeded into 384 well plates (Grenier Bio-One, Catalog number 781080) with a density of 10,000 cells per well. Compounds were then added to the assay plate with final top concentration of 10 μM and 1:3 dilution series with total of 9 doses. The final DMSO concentration is normalized to 0.2%. The assay plates were incubated at 37° C., for 3 days under 5% CO2. Then the assay plate was equilibrated at room temperature for 10 minutes. To determine cell viability, 30 uL CellTiter Glo reagent was added to each well and the assay plate was centrifuged at 1000 rpm for 30 second, incubated at room temperature for 10 min, and analyzed by detecting the luminescence using a multimode plate reader (EnVision 2105, PerkinElmer). The data was then analyzed by software Prism 7.0 from GraphPad and the dose response curves are fit using a three-parameter logistic equation to calculate IC50.
The letter codes for MOLT-4 IC50 include: A (<0.1 μM); B (0.1-1.0 μM); C (>1.0-3.0 μM); and D (>3.0 μM). The letter codes for Caki-2 IC50 include: A (<0.1 μM); B (0.1-1.0 μM); C (>1.0-10.0 μM); and D (>10.0 μM).

BCL-XL [2] = molecular target: T1, BCL-XL; experiment: Bcl-xL ELISA degradation in MOLT-4 cells, 6 h; settings: for DC50: read-out: Bcl-xL ELISA in MOLT-4 degradation 6 h: Mean external-Abs DC50
Method: The letter codes for BCL-XL DC50 include: A (<0.01 μM); B (0.01-0.1 μM); C (>[…]); D (>0.5-1.0 μM); and E (>1.0 μM). The letter codes for Dmax % include A (>75%); B (50 to 75%); C (<50%).

[3] = western blot, MOLT-4 cells, 16 h, read-out: Bcl-xL WB in MOLT-4 degradation 16 h: Average Dmax %
[4] = western blot, MOLT-4 cells, 16 h

T1 sequence (Q07817 whole entry): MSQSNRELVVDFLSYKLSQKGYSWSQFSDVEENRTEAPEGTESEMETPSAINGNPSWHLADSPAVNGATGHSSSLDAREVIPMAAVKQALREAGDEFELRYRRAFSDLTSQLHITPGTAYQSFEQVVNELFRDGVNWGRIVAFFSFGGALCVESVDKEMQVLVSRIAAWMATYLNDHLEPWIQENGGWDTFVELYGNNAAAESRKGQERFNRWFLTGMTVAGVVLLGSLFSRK

| Dmax (BCL-XL [1]; [3]) [%] | DC50 (BCL-XL [1]; [4]) [nM] | IC50 (MOLT-4 cells; MOLT-4, 72 h) [nM] | Dmax (BCL-XL [2]) [%] | DC50 (BCL-XL [2]) [nM] | SMILES | Dmax (BCL-XL [1]; MOLT-4, read-out: Bcl-xL WB in MOLT-4 degradation 16 h: Average Dmax %) [%] | IC50 (MOLT-4 cells; 72 h) [nM] |
| --- | --- | --- | --- | --- | --- | --- | --- |
| < 50 | > 1000 | > 3000 | – | – | Cc1cc([C@H](C(=O)N2C[C@H](O)C[C@H]2C(=O)NCc2ccc(-c3scnc3C)cc2OCC(=O)N2CCN(CC[C@H](CSc3ccccc3)Nc3ccc(S(=O)(=O)NC(=O)c4ccc(N5CCN(CC6=C(c7ccc(Cl)cc7)CCC(C)(C)C6)CC5)cc4)cc3S(=O)(=O)C(F)(F)F)CC2)C(C)C)on1 [I-134] | – | – |
| > 75 | < 10 | 100 to 1000 | – | – | Cc1ncsc1-c1ccc([C@H](C)NC(=O)[C@@H]2C[C@@H](O)CN2C(=O)[C@@H](NC(=O)CCCCCCCS(=O)(=O)NC(=O)c2nc(N3CCc4cccc(C(=O)Nc5nc6ncccc6s5)c4C3)ccc2-c2cnn(CC34CC5CC(CC(C5)C3)C4)c2C)C(C)(C)C)cc1 [I-140] | – | – |
| > 75 | 10 to 100 | < 100 | – | – | C#Cc1ccc([C@H](CO)NC(=O)[C@@H]2C[C@@H](O)CN2C(=O)[C@@H](NC(=O)CCCCCC(=O)N2CCN(CC[C@H](CSc3ccccc3)Nc3ccc(S(=O)(=O)NC(=O)c4ccc(N5CCN(CC6=C(c7ccc(Cl)cc7)CCC(C)(C)C6)CC5)cc4)cc3S(=O)(=O)C(F)(F)F)CC2)C(C)(C)C)cc1 [I-116] | – | – |
| > 75 | 10 to 100 | 100 to 1000 | – | – | Cc1ncsc1-c1ccc(CNC(=O)[C@@H]2C[C@@H](O)CN2C(=O)[C@@H](c2cc(N3CC4(CN(C(=O)CCCCC(=O)N(C)CC#Cc5ccc(OCCCc6ccc(N7CCc8cccc(C(=O)Nc9nc%10ccccc%10s9)c8C7)nc6C(=O)O)c(F)c5)C4)C3)no2)C(C)C)cc1 [I-193] | – | – |
| < 50 | > 1000 | 100 to 1000 | – | – | Cc1ncsc1-c1ccc([C@H](C)NC(=O)[C@@H]2C[C@@H](O)CN2C(=O)C(c2cc(OCC3CCN(CCNC(=O)c4nc(N5CCc6cccc(C(=O)Nc7nc8ccccc8s7)c6C5)ccc4-c4cnn(CC5CCCCC5)c4C)CC3)no2)C(C)C)cc1 (stereo partly drawn) [I-175] | – | – |
| < 50 | > 1000 | > 3000 | – | – | Cc1ncsc1-c1ccc(CNC(=O)[C@@H]2C[C@@H](O)CN2C(=O)[C@@H](NC(=O)C2(F)CC2)C(C)(C)C)c(OCCCCCC(=O)NCCOc2ccc(C(=O)Nc3nc4ccccc4s3)c3c2CCN(c2ccc(-c4cnn(CC5CCCCC5)c4C)c(C(=O)O)n2)C3)c1 [I-47] | – | – |
| < 50 | > 1000 | > 3000 | – | – | Cc1ncsc1-c1ccc([C@H](CC(=O)N(C)CCCC(=O)N2CCN(CC[C@H](CSc3ccccc3)Nc3ccc(S(=O)(=O)NC(=O)c4ccc(N5CCN(CC6=C(c7ccc(Cl)cc7)CCC(C)(C)C6)CC5)cc4)cc3S(=O)(=O)C(F)(F)F)CC2)NC(=O)[C@@H]2C[C@@H](O)CN2C(=O)[C@@H](NC(=O)C2(F)CC2)C(C)(C)C)cc1 [I-138] | – | – |
| 50 to 75 | 100 to 500 | 100 to 1000 | – | – | Cc1ncsc1-c1ccc([C@H](C)NC(=O)[C@@H]2C[C@@H](O)CN2C(=O)[C@@H](NC(=O)CCCC(=O)NCCOc2ccc(C(=O)Nc3nc4ccccc4s3)c3c2CCN(c2ccc(-c4cnn(CC5CCCCC5)c4C)c(C(=O)O)n2)C3)C(C)(C)C)cc1 [I-43] | – | – |
| 50 to 75 | 100 to 500 | 100 to 1000 | – | – | Cc1ncsc1-c1ccc(CNC(=O)[C@@H]2C[C@@H](O)CN2C(=O)[C@@H](NC(=O)C2(F)CC2)C(C)(C)C)c(OCCCNC(=O)c2nc(N3CCc4cccc(C(=O)Nc5nc6ccccc6s5)c4C3)ccc2-c2cnn(CC3CCCCC3)c2C)c1 [I-200] | – | – |
| > 75 | 10 to 100 | 100 to 1000 | – | – | Cc1cc([C@@H](C(=O)N2C[C@H](O)C[C@H]2C(=O)NCc2ccc(-c3scnc3C)cc2OCC(=O)N2CCN(CC[C@H](CSc3ccccc3)Nc3ccc(S(=O)(=O)NC(=O)c4ccc(N5CCN(CC6=C(c7ccc(Cl)cc7)CCC(C)(C)C6)CC5)cc4)cc3S(=O)(=O)C(F)(F)F)CC2)C(C)C)on1 [I-135] | – | – |
| > 75 | 100 to 500 | > 3000 | – | – | Cc1ncsc1-c1ccc([C@H](C)NC(=O)[C@@H]2C[C@@H](O)CN2C(=O)[C@@H](NC(=O)CCCCCCCCNC(=O)c2nc(N3CCc4cccc(C(=O)Nc5nc6ccccc6s5)c4C3)ccc2-c2cnn(CC3CCOCC3)c2C)C(C)(C)C)cc1 [I-142] | – | – |
| 50 to 75 | 100 to 500 | 100 to 1000 | – | – | Cc1ncsc1-c1ccc(CNC(=O)[C@@H]2C[C@@H](O)CN2C(=O)[C@@H](NC(=O)C2(F)CC2)C(C)(C)C)c(OCCCCCCCC(=O)NCCOc2ccc(C(=O)Nc3nc4ccccc4s3)c3c2CCN(c2ccc(-c4cnn(CC5CCCCC5)c4C)c(C(=O)O)n2)C3)c1 [I-48] | – | – |
| 50 to 75 | 100 to 500 | 100 to 1000 | – | – | Cc1ncsc1-c1ccc(CNC(=O)[C@@H]2C[C@@H](O)CN2C(=O)[C@@H](NC(=O)C2(F)CC2)C(C)(C)C)c(OCCN2CCC(NC(=O)c3nc(N4CCc5cccc(C(=O)Nc6nc7ccccc7s6)c5C4)ccc3-c3cnn(CC4CCCCC4)c3C)CC2)c1 [I-191] | – | – |
| < 50 | > 1000 | 1000 to 3000 | – | – | Cc1ncsc1-c1ccc([C@H](C)NC(=O)[C@@H]2C[C@@H](O)CN2C(=O)[C@H](c2cc(OC3CCN(CCCS(=O)(=O)NC(=O)c4nc(N5CCc6cccc(C(=O)Nc7nc8ccccc8s7)c6C5)ccc4-c4cnn(CC5CCCCC5)c4C)CC3)no2)C(C)C)cc1 [I-174] | – | – |
| > 75 | 10 to 100 | 1000 to 3000 | – | – | Cc1ncsc1-c1ccc(CNC(=O)[C@@H]2C[C@@H](O)CN2C(=O)[C@@H](NC(=O)C2(C#N)CC2)C(C)(C)C)c(OCC(=O)N2CCN(CC[C@H](CSc3ccccc3)Nc3ccc(S(=O)(=O)NC(=O)c4ccc(N5CCN(CC6=C(c7ccc(Cl)cc7)CCC(C)(C)C6)CC5)cc4)cc3S(=O)(=O)C(F)(F)F)CC2)c1 [I-133] | – | – |
| 50 to 75 | 100 to 500 | 1000 to 3000 | – | – | Cc1ncsc1-c1ccc(CNC(=O)[C@@H]2C[C@@H](O)CN2C(=O)[C@@H](NC(=O)C2(F)CC2)C(C)(C)C)c(OCCCC(=O)NCCOc2ccc(C(=O)Nc3nc4ccccc4s3)c3c2CCN(c2ccc(-c4cnn(CC5CCCCC5)c4C)c(C(=O)O)n2)C3)c1 [I-46] | – | – |
| 50 to 75 | 100 to 500 | 1000 to 3000 | – | – | Cc1ncsc1-c1ccc([C@H](C)NC(=O)[C@@H]2C[C@@H](O)CN2C(=O)[C@H](c2cc(N3CCN(c4ccc(S(=O)(=O)NC(=O)c5nc(N6CCc7cccc(C(=O)Nc8nc9ccccc9s8)c7C6)ccc5-c5cnn(CC6CCCCC6)c5C)cc4)CC3)no2)C(C)C)cc1 [I-213] | – | – |
| – | – | 100 to 1000 | 50 to 75 | 10 to 100 | Cc1ncsc1-c1ccc([C@H](C)NC(=O)[C@@H]2C[C@H](O)CN2C(=O)[C@@H](NC(=O)CCCCCS(=O)(=O)NC(=O)c2nc(N3CCc4cccc(C(=O)Nc5nc6ccccc6s5)c4C3)ccc2-c2cnn(CC34CC5CC(CC(C5)C3)C4)c2C)C(C)(C)C)cc1 [I-286] | – | – |
| – | – | 100 to 1000 | 50 to 75 | 100 to 500 | Cc1ncsc1-c1ccc(CNC(=O)[C@@H]2C[C@H](O)CN2C(=O)[C@@H](NC(=O)C2(F)CC2)C(C)(C)C)c(OCCCCCS(=O)(=O)NC(=O)c2nc(N3CCc4cccc(C(=O)Nc5nc6ccccc6s5)c4C3)ccc2-c2cnn(CC34CC5CC(CC(C5)C3)C4)c2C)c1 [I-290] | – | – |
| – | – | 100 to 1000 | 50 to 75 | 500 to 1000 | Cc1ncsc1-c1ccc([C@H](C)NC(=O)[C@@H]2C[C@@H](O)CN2C(=O)[C@H](c2cc(OCC3CCN(CCNC(=O)c4nc(N5CCc6cccc(C(=O)Nc7nc8ccccc8s7)c6C5)ccc4-c4cnn(CC5CCCCC5)c4C)CC3)no2)C(C)C)cc1 [I-288] | – | – |

| SMILES | Dmax (BCL-XL [1]; [3]) [%] | DC50 (BCL-XL [1]; [4]) [nM] | IC50 (MOLT-4 cells; MOLT-4, 72 h) [nM] | Dmax (BCL-XL [2]) [%] | DC50 (BCL-XL [2]) [nM] | Dmax (BCL-XL [1]; MOLT-4, read-out: Bcl-xL WB in MOLT-4 degradation 16 h: Average Dmax %) [%] | IC50 (MOLT-4 cells; 72 h) [nM] |
| --- | --- | --- | --- | --- | --- | --- | --- |
| Cc1ncsc1-c1ccc([C@H](CC(=O)N(C)CC(=O)N2CCN(CC[C@H](CSc3ccccc3)Nc3ccc(S(=O)(=O)NC(=O)c4ccc(N5CCN(CC6=C(c7ccc(Cl)cc7)CCC(C)(C)C6)CC5)cc4)cc3S(=O)(=O)C(F)(F)F)CC2)NC(=O)[C@@H]2C[C@@H](O)CN2C(=O)[C@@H](NC(=O)C2(F)CC2)C(C)(C)C)cc1 [I-136] | – | > 1000 | – | – | – | < 50 | > 3000 |
| Cc1ncsc1-c1ccc([C@H](C)NC(=O)[C@@H]2C[C@@H](O)CN2C(=O)[C@@H](NC(=O)CN(C)CCCS(=O)(=O)NC(=O)c2nc(N3CCc4cccc(C(=O)Nc5nc6ccccc6s5)c4C3)ccc2-c2cnn(CC3CCCCC3)c2C)C(C)(C)C)cc1 [I-220] | – | – | – | > 75 | < 10 | – | < 100 |
